Experimental data from ChEMBL document CHEMBL3727348, “3-(aryl or heteroaryl) methyleneindolin-2-one derivatives as inhibitors of cancer stem cell pathway kinases for the treatment of cancer” (2014).

What was measured:
Format in all cases: functional, cell-based
A549 [1] = test: Cytotoxic activity against human A549 bulk cells incubated for 72 hrs by Cell-titer-Glo luminescence assay; settings: A549, 72 h
ACHN [2] = test: Cytotoxic activity against human ACHN bulk cells incubated for 72 hrs by Cell-titer-Glo luminescence assay
FaDu [3] = test: Cytotoxic activity against human FADU cancer stem cells incubated for 72 hrs by Cell-titer-Glo luminescence assay
FaDu [4] = test: Cytotoxic activity against human FADU bulk cells incubated for 72 hrs by Cell-titer-Glo luminescence assay
A549 [5] = test: Cytotoxic activity against human A549 cancer stem cells incubated for 72 hrs by Cell-titer-Glo luminescence assay; settings: A549, 72 h
ACHN [6] = test: Cytotoxic activity against human ACHN cancer stem cells incubated for 72 hrs by Cell-titer-Glo luminescence assay

Cc1cc(C)c(/C=C2\C(=O)Nc3ccc(-c4cnc5ccccc5n4)cc32)[nH]1
IC50 (A549 [1]): 7.89 µM | IC50 (ACHN [2]): 10.6 µM | IC50 (FaDu [3]): 0.09 µM | IC50 (FaDu [4]): 25.8 µM

Cc1[nH]c(/C=C2\C(=O)Nc3ccc(-c4csc(-c5ccccc5)n4)cc32)c(C)c1CCC(=O)O
IC50 (A549 [5]): 1.65 µM

Cc1cc(C)c(/C=C2\C(=O)Nc3ccc(-c4cc(-c5ccccc5)ccn4)cc32)[nH]1
IC50 (A549 [1]): 13.8 µM | IC50 (A549 [5]): 35.7 µM | IC50 (FaDu [4]): 22.4 µM

CCOC(=O)c1cc(C)c(/C=C2\C(=O)Nc3ccc(-c4csc(-c5ccccc5)n4)cc32)[nH]1
IC50 (A549 [1]): 40 µM | IC50 (ACHN [2]): 0.39 µM | IC50 (A549 [5]): 13.2 µM | IC50 (FaDu [4]): 13.5 µM

Cc1cc(C)c(/C=C2\C(=O)Nc3ccc(-c4ncccn4)cc32)[nH]1
IC50 (ACHN [2]): 25.3 µM | IC50 (FaDu [3]): 25.2 µM | IC50 (A549 [5]): 28.7 µM | IC50 (FaDu [4]): 26.1 µM

O=C1Nc2ccc(-c3csc(-c4ccccc4)n3)cc2/C1=C/c1cnc[nH]1
IC50 (A549 [1]): 11.2 µM | IC50 (ACHN [2]): 8.74 µM | IC50 (FaDu [3]): 6.32 µM | IC50 (A549 [5]): 0.9 µM | IC50 (FaDu [4]): 6.14 µM

CCN(CC)CCNC(=O)c1c(C)[nH]c(/C=C2\C(=O)Nc3ccc(-c4csc(-c5ccc(C)cc5)n4)cc32)c1C
IC50 (ACHN [6]): 690 nM | IC50 (FaDu [3]): 3.4 µM | IC50 (A549 [5]): 10.5 µM

CCN(CC)CCNC(=O)c1c(C)[nH]c(/C=C2\C(=O)Nc3ccc(-c4csc(-c5ccc(CCC(=O)O)cc5)n4)cc32)c1C
IC50 (FaDu [3]): 4.88 µM | IC50 (A549 [5]): 4.21 µM

Cc1cc(C)c(/C=C2\C(=O)Nc3ccc(-c4csc(-n5cccn5)n4)cc32)[nH]1
IC50 (A549 [1]): 9.76 µM | IC50 (ACHN [2]): 9 µM | IC50 (FaDu [3]): 27.2 µM | IC50 (A549 [5]): 16.2 µM | IC50 (FaDu [4]): 20.8 µM

Cc1cc(C)c(/C=C2\C(=O)Nc3ccc(-c4nc5ccccc5s4)cc32)[nH]1
IC50 (A549 [1]): 16.1 µM | IC50 (ACHN [2]): 14.7 µM | IC50 (FaDu [4]): 26.8 µM

Cc1ccc(-c2ccc3c(c2)/C(=C/c2[nH]c(C)cc2C)C(=O)N3)cn1
IC50 (A549 [1]): 25.8 µM | IC50 (ACHN [6]): 10 nM | IC50 (ACHN [2]): 24.9 µM

Cc1ccc(-c2nc(-c3ccc4c(c3)/C(=C/c3[nH]c(C)c(C(=O)N5CCN(C)CC5)c3C)C(=O)N4)cs2)cc1
IC50 (A549 [1]): 8.55 µM | IC50 (ACHN [2]): 4.25 µM | IC50 (FaDu [3]): 1.98 µM | IC50 (A549 [5]): 0.45 µM | IC50 (FaDu [4]): 7.87 µM

O=C1Nc2ccc(-c3csc(-c4ccccc4)n3)cc2/C1=C/c1cc2c([nH]1)CCCC2
IC50 (ACHN [6]): 2520 nM | IC50 (ACHN [2]): 34.6 µM | IC50 (FaDu [3]): 4.09 µM | IC50 (A549 [5]): 1.42 µM | IC50 (FaDu [4]): 20.2 µM

Cc1ccc(-c2ccc3c(c2)NC(=O)/C3=C\c2[nH]c(C)cc2C)cn1
IC50 (ACHN [6]): 4550 nM | IC50 (ACHN [2]): 22 µM | IC50 (FaDu [3]): 3.61 µM | IC50 (A549 [5]): 23.7 µM

CCN(CC)CCNC(=O)c1c(C)[nH]c(/C=C2\C(=O)Nc3ccc(-c4n[nH]c5c(N)cccc45)cc32)c1C
IC50 (A549 [1]): 11.6 µM | IC50 (ACHN [6]): 30800 nM | IC50 (ACHN [2]): 12 µM | IC50 (FaDu [3]): 28.4 µM | IC50 (FaDu [4]): 7.09 µM

CCN(CC)CCNC(=O)c1c(C)[nH]c(/C=C2\C(=O)Nc3ccc(-c4cn(-c5ccccc5)nn4)cc32)c1C
IC50 (A549 [1]): 4.88 µM | IC50 (ACHN [2]): 4.73 µM | IC50 (FaDu [3]): 2.9 µM | IC50 (FaDu [4]): 6.74 µM

Cc1[nH]c(/C=C2\C(=O)Nc3ccc(-c4cnn(-c5ccccn5)c4)cc32)c(C)c1C(=O)N1CCN(C)CC1
IC50 (A549 [1]): 18.9 µM | IC50 (FaDu [3]): 0.24 µM | IC50 (A549 [5]): 11.7 µM | IC50 (FaDu [4]): 3.67 µM

Cc1cc(C)c(/C=C2\C(=O)Nc3ccc(-c4ccncc4)cc32)[nH]1
IC50 (ACHN [6]): 6950 nM

Cc1cc(C)c(/C=C2\C(=O)Nc3ccc(-c4ncccc4C)cc32)[nH]1
IC50 (A549 [1]): 22.4 µM | IC50 (ACHN [6]): 10 nM | IC50 (ACHN [2]): 7.95 µM | IC50 (FaDu [3]): 41.1 µM

CCN(CC)CCNC(=O)c1ccc(/C=C2\C(=O)Nc3ccc(-c4csc(-c5ccccc5)n4)cc32)[nH]c1=O
IC50 (A549 [1]): 3.64 µM | IC50 (ACHN [2]): 3.31 µM | IC50 (FaDu [3]): 6.15 µM | IC50 (FaDu [4]): 3.1 µM

Cc1cc(C)c(/C=C2\C(=O)Nc3ccc(-c4cnc(-c5ccccc5)cn4)cc32)[nH]1
IC50 (ACHN [6]): 6800 nM

CCN(CC)CCNC(=O)c1c(C)[nH]c(/C=C2\C(=O)Nc3ccc(-c4cnc(-c5ccccc5)cn4)cc32)c1C
IC50 (A549 [1]): 16.9 µM | IC50 (ACHN [2]): 25.8 µM | IC50 (FaDu [3]): 39.1 µM | IC50 (A549 [5]): 43.6 µM | IC50 (FaDu [4]): 17.5 µM

CSc1cnc(-c2ccc3c(c2)/C(=C/c2[nH]c(C)cc2C)C(=O)N3)cn1
IC50 (A549 [1]): 35.8 µM | IC50 (ACHN [6]): 18300 nM | IC50 (ACHN [2]): 0.16 µM

CCN(CC)CCNC(=O)c1c(C)[nH]c(/C=C2\C(=O)Nc3ccc(-c4csc(C5CCNC5)n4)cc32)c1C (centres undefined)
IC50 (A549 [1]): 0.72 µM | IC50 (ACHN [2]): 6.75 µM | IC50 (A549 [5]): 32.5 µM | IC50 (FaDu [4]): 2.42 µM

O=C1Nc2ccc(-c3csc(-c4ccccc4)n3)cc2/C1=C/c1[nH]cc2ccccc12
IC50 (ACHN [6]): 4080 nM | IC50 (FaDu [3]): 5.04 µM

Cc1cc(C)c(/C=C2\C(=O)Nc3ccc(-c4cccc5ncccc45)cc32)[nH]1
IC50 (A549 [1]): 11.1 µM | IC50 (ACHN [2]): 13.2 µM | IC50 (FaDu [3]): 13.1 µM | IC50 (A549 [5]): 40 µM | IC50 (FaDu [4]): 13.4 µM

CCN(CC)CCNC(=O)c1c(C)[nH]c(/C=C2\C(=O)Nc3cc(-c4csc(-c5ccccc5)n4)ccc32)c1C
IC50 (ACHN [6]): 190 nM | IC50 (FaDu [3]): 0.6 µM | IC50 (A549 [5]): 3.73 µM | IC50 (FaDu [4]): 1.8 µM

O=C1Nc2ccc(-c3csc(-c4ccncc4)n3)cc2/C1=C/c1cc2c([nH]1)CCCC2
IC50 (ACHN [2]): 37.8 µM | IC50 (A549 [5]): 0.8 µM

CCN(CC)CCNC(=O)c1c(C)[nH]c(/C=C2\C(=O)Nc3cc(-c4ccc(-c5ccccc5)cn4)ccc32)c1C
IC50 (ACHN [6]): 2880 nM | IC50 (FaDu [3]): 1.18 µM | IC50 (A549 [5]): 4.93 µM | IC50 (FaDu [4]): 19.8 µM

Cc1[nH]c(/C=C2\C(=O)Nc3ccc(-c4csc(-c5ccccc5)n4)cc32)c(C)c1S(=O)(=O)N1CCCC1
IC50 (A549 [1]): 2.86 µM | IC50 (ACHN [6]): 5050 nM | IC50 (ACHN [2]): 12.6 µM | IC50 (FaDu [3]): 6.56 µM | IC50 (FaDu [4]): 5.48 µM

Cc1cc(C)c(/C=C2\C(=O)Nc3cc(-c4ccncc4)ccc32)[nH]1
IC50 (A549 [5]): 0.98 µM | IC50 (FaDu [4]): 18.4 µM

Cc1cc(C)c(/C=C2\C(=O)Nc3ccc(-c4cnc5cccnn45)cc32)[nH]1
IC50 (A549 [1]): 12.5 µM | IC50 (FaDu [3]): 1.55 µM | IC50 (A549 [5]): 8.66 µM | IC50 (FaDu [4]): 5.23 µM

CCN(CC)CCNC(=O)c1c(C)[nH]c(/C=C2\C(=O)Nc3cc(-c4nccc5ccccc45)ccc32)c1C
IC50 (A549 [1]): 7.14 µM | IC50 (ACHN [6]): 1910 nM | IC50 (ACHN [2]): 6.51 µM | IC50 (FaDu [3]): 24.4 µM | IC50 (FaDu [4]): 9.12 µM

Cc1cc(C)c(/C=C2\C(=O)Nc3ccc(-c4cnsc4)cc32)[nH]1
IC50 (ACHN [6]): 17100 nM | IC50 (ACHN [2]): 42.8 µM | IC50 (FaDu [3]): 43.4 µM | IC50 (FaDu [4]): 26.7 µM

CCN(CC)CCNC(=O)c1c(C)[nH]c(/C=C2\C(=O)Nc3ccc(-c4csc(-c5cccc(CCC(=O)O)c5)n4)cc32)c1C
IC50 (ACHN [2]): 1.27 µM | IC50 (FaDu [3]): 4.88 µM | IC50 (A549 [5]): 4.21 µM | IC50 (FaDu [4]): 1.77 µM

Cc1ccc(-c2ccc3c(c2)/C(=C/c2[nH]c(C)cc2C)C(=O)N3)nc1
IC50 (ACHN [6]): 50 nM | IC50 (FaDu [4]): 37.3 µM

CCN(CC)CCN1CCCc2[nH]c(/C=C3\C(=O)Nc4ccc(-c5csc(C6CCNCC6)n5)cc43)c(C)c2C1=O
IC50 (A549 [1]): 7.06 µM | IC50 (ACHN [6]): 11900 nM | IC50 (FaDu [4]): 8.67 µM

CCOC(=O)c1[nH]c(/C=C2\C(=O)Nc3ccc(-c4csc(-c5ccccc5)n4)cc32)c2c1CCCC2
IC50 (ACHN [6]): 1600 nM | IC50 (ACHN [2]): 0.83 µM | IC50 (FaDu [3]): 2.91 µM

Cc1cc(C)c(/C=C2\C(=O)Nc3ccc(-c4ccccn4)cc32)[nH]1
IC50 (ACHN [6]): 20 nM

Cc1cc(C)c(/C=C2\C(=O)Nc3ccc(-c4cnc5ccccn45)cc32)[nH]1
IC50 (A549 [1]): 16.6 µM | IC50 (ACHN [2]): 25.2 µM | IC50 (FaDu [3]): 17 µM | IC50 (A549 [5]): 20.2 µM | IC50 (FaDu [4]): 11.4 µM

CCN(CC)CCNC(=O)c1c(C)[nH]c(/C=C2\C(=O)Nc3ccc(C4CCN(C5CCN(C(C)=O)CC5)CC4)cc32)c1C
IC50 (A549 [1]): 29.6 µM | IC50 (ACHN [2]): 4.8 µM | IC50 (FaDu [3]): 1 µM | IC50 (FaDu [4]): 3.32 µM

Cc1[nH]c(/C=C2\C(=O)Nc3ccc(-c4cnn(-c5ccccc5)c4)cc32)c(C)c1C(=O)N1CCN(C)CC1
IC50 (A549 [1]): 6.91 µM | IC50 (ACHN [2]): 3.4 µM | IC50 (FaDu [3]): 0.31 µM | IC50 (A549 [5]): 4.49 µM | IC50 (FaDu [4]): 3.62 µM

CCN(CC)CCNC(=O)c1c(C)[nH]c(/C=C2\C(=O)Nc3ccc(-c4cnc(SC)cn4)cc32)c1C
IC50 (A549 [1]): 6.06 µM | IC50 (ACHN [2]): 12.3 µM | IC50 (A549 [5]): 30 µM | IC50 (FaDu [4]): 5.96 µM
